Data taken from ChEMBL document CHEMBL5465560, “Selectivity Literature for EUbOPEN Chemogenomic Library” (2024).
Each block holds one compound with its values, some of them ahead of it.

What was measured:
[1] = target: T1, Serine/threonine-protein kinase ULK2 (Homo sapiens) (UniProt Q8IYT8); assay: Selectivity interaction (KinomeScan (DiscoverX)) EUB0000655a ULK2; details: at 10 µM
T1 sequence (whole entry): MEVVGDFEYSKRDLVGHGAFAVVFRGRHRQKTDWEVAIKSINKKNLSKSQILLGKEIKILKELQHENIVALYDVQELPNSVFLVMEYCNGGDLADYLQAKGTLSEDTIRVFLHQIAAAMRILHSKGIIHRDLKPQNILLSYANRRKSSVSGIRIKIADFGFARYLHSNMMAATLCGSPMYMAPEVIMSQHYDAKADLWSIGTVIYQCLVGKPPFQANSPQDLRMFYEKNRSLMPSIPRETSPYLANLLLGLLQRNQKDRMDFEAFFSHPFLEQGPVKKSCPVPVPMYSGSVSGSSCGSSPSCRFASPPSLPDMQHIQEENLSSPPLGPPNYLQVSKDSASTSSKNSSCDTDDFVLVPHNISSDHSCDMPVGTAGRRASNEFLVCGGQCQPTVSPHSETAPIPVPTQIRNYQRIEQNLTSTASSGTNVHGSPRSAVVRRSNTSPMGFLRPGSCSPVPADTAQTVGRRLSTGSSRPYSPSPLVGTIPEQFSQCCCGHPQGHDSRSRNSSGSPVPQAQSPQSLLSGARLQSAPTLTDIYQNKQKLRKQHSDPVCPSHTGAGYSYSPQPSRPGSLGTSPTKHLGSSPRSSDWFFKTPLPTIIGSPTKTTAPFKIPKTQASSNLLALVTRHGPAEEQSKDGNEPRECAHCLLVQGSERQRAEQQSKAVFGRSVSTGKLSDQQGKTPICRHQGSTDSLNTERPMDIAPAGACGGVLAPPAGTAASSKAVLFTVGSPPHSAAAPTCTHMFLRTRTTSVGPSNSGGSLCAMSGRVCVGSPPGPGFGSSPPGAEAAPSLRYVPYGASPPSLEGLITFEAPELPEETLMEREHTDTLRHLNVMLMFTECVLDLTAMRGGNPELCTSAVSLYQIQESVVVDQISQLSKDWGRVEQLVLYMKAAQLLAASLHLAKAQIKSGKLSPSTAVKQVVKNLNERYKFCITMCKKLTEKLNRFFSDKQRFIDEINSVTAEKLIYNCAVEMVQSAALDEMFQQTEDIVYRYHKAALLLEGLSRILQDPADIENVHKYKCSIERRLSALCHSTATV

[2] = target: Mitogen-activated protein kinase kinase kinase kinase 1 (Homo sapiens) (UniProt Q92918); assay: Selectivity interaction (ActivX KiNativ screen (kinase selectivity in THP-1 cell lysates)) EUB0000639a MAP4K1; type: subcellular; details: lysate, at 0.01 µM
[3] = target: Serine/threonine-protein kinase 26 (Homo sapiens, UniProt Q9P289); assay: Selectivity interaction (ActivX KiNativ screen (kinase selectivity in THP-1 cell lysates)) EUB0000639a STK26; type: subcellular; details: lysate
[4] = target: Serine/threonine-protein kinase 38 (Homo sapiens) (UniProt Q15208); assay: Selectivity interaction (ActivX KiNativ screen (kinase selectivity in THP-1 cell lysates)) EUB0000639a STK38; type: subcellular; details: lysate, at 0.01 µM
[5] = target: T2, Serine/threonine-protein kinase Nek1 (Homo sapiens) (UniProt Q96PY6); assay: Selectivity interaction (ActivX KiNativ screen (kinase selectivity in THP-1 cell lysates)) EUB0000639a NEK1; type: subcellular; details: lysate
T2 sequence (whole entry): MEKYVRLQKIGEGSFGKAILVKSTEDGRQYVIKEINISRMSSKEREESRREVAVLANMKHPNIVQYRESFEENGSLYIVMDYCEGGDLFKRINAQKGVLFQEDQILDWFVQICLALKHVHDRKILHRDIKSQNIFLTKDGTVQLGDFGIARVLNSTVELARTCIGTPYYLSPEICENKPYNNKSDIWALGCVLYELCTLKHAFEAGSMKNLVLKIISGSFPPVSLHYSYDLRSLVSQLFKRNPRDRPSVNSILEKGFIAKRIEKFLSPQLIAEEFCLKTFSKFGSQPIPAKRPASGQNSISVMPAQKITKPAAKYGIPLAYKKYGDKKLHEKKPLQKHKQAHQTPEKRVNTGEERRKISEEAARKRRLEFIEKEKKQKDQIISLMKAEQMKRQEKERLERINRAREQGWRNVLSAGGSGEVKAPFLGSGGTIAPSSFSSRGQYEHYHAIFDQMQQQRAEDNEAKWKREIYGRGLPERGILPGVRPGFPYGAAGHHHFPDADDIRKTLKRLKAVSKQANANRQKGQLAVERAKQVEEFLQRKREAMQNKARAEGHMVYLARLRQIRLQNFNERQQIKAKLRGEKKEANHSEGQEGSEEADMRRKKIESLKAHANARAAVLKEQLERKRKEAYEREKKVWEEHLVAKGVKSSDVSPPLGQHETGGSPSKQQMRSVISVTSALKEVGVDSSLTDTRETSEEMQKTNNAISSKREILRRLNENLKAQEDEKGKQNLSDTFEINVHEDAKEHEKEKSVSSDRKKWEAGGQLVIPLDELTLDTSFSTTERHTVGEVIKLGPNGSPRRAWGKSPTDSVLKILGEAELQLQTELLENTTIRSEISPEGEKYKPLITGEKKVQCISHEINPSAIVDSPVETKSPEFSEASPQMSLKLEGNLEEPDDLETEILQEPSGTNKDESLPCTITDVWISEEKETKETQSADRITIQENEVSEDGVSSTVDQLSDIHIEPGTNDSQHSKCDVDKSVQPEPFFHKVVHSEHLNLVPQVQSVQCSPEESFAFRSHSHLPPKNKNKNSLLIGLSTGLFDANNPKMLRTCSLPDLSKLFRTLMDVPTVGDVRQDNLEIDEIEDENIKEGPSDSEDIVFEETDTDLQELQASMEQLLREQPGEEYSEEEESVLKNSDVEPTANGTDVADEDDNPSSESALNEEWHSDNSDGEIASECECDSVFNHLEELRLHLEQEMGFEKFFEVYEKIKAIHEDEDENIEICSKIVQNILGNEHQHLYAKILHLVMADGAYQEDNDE

[6] = target: Non-receptor tyrosine-protein kinase TYK2 (Homo sapiens, UniProt P29597); assay: Selectivity interaction (KinomeScan (DiscoverX)) EUB0000229b TYK2; details: at 10 µM
[7] = target: Serine/threonine-protein kinase MRCK gamma (Homo sapiens) (UniProt Q6DT37); assay: Selectivity interaction (KinomeScan (DiscoverX)) EUB0001049a CDC42BPG; details: at 1 µM
[8] = target: Ephrin type-A receptor 2 (Homo sapiens) (UniProt P29317); assay: Selectivity interaction (KinomeScan (DiscoverX)) EUB0000666a EPHA2; details: at 10 µM
[9] = target: Dual specificity testis-specific protein kinase 2 (Homo sapiens) (UniProt Q96S53); assay: Selectivity interaction (LanthaScreen Eu Kinase Binding Assay) EUB0001632a TESK2; details: at 10 µM
Chain of Dual specificity testis-specific protein kinase 2 (Homo sapiens) (Q96S53 whole entry, looked up): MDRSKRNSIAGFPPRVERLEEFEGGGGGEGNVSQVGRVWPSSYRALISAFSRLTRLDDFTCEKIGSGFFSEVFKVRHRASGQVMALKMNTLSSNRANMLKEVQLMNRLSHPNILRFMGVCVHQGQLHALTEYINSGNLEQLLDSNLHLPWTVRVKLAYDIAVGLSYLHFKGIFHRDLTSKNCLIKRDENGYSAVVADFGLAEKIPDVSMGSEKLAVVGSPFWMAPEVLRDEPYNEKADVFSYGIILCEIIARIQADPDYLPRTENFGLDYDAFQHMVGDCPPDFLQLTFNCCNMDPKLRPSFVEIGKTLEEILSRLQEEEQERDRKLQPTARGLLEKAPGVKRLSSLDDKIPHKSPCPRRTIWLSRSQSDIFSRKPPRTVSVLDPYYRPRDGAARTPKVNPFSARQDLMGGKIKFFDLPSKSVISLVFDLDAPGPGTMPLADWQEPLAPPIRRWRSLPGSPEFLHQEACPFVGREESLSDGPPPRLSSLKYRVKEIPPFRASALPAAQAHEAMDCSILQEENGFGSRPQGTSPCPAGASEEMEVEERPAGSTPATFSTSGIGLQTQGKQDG

Chain of Serine/threonine-protein kinase 26 (Q9P289 2-416 limits assumed): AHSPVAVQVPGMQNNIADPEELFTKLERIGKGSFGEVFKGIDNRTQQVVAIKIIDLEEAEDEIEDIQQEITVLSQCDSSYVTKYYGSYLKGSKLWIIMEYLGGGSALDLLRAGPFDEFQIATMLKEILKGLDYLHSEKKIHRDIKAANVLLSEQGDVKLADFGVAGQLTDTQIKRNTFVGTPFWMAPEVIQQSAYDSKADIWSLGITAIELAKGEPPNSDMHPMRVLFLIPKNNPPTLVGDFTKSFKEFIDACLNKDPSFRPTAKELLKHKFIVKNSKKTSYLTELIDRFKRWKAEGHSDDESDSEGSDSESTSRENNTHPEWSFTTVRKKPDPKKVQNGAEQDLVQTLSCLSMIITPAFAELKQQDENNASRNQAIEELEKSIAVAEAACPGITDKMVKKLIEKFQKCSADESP
Chain of Serine/threonine-protein kinase 38 (Homo sapiens) (Q15208 2-465 limits assumed): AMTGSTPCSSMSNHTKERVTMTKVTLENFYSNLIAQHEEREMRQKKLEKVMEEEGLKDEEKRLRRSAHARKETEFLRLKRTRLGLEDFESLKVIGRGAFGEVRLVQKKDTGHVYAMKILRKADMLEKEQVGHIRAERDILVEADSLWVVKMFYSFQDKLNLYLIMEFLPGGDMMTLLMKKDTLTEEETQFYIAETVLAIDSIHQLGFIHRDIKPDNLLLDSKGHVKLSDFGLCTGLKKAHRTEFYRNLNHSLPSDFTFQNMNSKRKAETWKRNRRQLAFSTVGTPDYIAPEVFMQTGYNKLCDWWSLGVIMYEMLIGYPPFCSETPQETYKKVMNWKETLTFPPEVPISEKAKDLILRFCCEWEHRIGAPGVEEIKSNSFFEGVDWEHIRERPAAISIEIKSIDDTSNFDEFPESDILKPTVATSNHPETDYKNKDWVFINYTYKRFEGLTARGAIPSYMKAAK
Chain of Non-receptor tyrosine-protein kinase TYK2 (P29597 whole entry): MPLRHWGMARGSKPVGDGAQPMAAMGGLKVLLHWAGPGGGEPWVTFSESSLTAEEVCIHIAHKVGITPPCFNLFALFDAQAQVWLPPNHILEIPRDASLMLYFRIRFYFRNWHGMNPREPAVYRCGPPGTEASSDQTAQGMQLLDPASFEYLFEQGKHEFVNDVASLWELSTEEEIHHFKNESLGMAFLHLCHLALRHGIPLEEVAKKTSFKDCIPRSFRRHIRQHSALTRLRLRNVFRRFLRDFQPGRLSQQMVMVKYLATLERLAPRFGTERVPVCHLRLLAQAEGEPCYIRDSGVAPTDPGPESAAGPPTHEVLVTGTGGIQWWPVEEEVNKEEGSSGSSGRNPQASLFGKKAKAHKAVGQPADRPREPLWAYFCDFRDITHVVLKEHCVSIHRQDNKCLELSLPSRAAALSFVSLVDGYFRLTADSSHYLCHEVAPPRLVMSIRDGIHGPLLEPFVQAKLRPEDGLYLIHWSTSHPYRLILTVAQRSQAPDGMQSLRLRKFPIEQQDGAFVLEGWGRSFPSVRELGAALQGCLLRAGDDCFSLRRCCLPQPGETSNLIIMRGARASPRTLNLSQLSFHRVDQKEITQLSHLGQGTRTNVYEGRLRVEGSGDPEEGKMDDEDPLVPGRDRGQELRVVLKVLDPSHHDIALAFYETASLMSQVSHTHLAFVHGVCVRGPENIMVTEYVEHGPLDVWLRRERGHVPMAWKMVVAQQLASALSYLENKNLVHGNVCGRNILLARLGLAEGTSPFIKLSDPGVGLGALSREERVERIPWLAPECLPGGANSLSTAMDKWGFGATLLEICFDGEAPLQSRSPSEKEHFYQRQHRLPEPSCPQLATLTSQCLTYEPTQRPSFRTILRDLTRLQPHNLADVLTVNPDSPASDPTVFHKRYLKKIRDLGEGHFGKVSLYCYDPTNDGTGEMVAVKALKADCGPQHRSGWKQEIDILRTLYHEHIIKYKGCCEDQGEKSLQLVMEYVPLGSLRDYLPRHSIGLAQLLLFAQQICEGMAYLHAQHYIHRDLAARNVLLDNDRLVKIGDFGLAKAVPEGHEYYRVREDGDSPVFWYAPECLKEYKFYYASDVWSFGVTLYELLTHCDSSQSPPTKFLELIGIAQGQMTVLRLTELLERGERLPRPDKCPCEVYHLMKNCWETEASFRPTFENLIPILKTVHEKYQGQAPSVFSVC
Chain of Serine/threonine-protein kinase MRCK gamma (Homo sapiens) (Q6DT37 whole entry): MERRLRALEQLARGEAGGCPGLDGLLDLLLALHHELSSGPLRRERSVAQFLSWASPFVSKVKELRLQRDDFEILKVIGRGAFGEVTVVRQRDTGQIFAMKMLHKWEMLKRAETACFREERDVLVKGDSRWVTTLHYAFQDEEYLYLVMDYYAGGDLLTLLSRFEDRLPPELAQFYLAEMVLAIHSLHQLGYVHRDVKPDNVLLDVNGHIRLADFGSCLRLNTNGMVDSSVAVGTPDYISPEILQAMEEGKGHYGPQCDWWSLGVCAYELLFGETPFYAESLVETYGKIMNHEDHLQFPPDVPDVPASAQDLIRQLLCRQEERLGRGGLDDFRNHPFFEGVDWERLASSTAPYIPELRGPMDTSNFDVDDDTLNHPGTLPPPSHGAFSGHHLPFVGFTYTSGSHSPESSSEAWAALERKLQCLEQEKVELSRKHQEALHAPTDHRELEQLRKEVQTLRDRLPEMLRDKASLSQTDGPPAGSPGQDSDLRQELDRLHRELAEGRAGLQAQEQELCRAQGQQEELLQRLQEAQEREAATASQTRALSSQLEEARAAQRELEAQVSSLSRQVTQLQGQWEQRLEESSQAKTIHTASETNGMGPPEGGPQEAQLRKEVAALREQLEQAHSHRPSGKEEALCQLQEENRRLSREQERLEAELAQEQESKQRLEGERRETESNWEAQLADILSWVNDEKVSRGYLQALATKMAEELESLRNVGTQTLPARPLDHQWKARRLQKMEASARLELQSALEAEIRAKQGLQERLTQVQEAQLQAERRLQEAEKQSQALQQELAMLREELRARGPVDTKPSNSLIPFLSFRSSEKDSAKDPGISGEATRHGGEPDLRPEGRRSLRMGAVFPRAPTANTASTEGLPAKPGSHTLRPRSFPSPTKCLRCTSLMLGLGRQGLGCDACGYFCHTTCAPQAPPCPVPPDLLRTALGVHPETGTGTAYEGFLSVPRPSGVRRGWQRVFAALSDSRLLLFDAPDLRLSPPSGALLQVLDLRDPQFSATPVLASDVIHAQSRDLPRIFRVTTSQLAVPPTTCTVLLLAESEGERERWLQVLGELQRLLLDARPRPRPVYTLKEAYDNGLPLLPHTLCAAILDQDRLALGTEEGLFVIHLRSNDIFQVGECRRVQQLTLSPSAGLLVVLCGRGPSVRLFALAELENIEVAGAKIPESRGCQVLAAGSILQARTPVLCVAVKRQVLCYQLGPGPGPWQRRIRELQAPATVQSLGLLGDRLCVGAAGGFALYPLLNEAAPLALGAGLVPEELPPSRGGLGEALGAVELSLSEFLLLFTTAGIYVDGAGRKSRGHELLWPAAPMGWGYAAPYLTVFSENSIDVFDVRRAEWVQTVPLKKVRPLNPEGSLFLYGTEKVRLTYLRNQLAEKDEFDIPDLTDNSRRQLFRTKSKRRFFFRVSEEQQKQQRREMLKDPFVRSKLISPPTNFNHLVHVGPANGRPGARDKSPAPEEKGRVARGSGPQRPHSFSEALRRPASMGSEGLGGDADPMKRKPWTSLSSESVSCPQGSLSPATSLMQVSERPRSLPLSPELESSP
Chain of Mitogen-activated protein kinase kinase kinase kinase 1 (Homo sapiens) (Q92918 whole entry, looked up): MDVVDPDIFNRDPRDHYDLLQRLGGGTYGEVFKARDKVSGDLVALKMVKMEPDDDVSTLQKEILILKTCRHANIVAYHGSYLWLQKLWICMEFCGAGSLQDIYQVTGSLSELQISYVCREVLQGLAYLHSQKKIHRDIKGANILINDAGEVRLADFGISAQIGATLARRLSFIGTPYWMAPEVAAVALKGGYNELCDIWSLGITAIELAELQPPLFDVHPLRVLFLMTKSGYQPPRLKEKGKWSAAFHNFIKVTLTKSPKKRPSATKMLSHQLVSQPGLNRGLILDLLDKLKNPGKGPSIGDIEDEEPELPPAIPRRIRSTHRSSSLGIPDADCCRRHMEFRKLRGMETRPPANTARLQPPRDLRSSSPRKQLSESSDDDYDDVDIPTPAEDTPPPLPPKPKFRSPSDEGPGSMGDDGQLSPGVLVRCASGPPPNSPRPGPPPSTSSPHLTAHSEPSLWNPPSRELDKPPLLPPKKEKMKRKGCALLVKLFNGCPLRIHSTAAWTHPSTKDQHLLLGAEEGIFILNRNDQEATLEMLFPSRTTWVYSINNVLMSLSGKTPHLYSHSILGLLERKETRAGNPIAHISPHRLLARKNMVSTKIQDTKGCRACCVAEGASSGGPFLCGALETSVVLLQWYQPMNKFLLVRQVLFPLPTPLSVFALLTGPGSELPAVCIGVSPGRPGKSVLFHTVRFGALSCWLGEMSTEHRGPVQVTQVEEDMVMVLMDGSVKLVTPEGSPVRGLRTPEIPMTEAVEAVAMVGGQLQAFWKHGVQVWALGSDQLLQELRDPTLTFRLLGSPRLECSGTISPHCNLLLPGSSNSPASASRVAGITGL

Compound: CN(C)CCOc1ccc(-c2nc(-c3ccncc3)c(-c3ccc4c(c3)CC/C4=N\O)[nH]2)cc1
- % of control [1]: 90%

- % of inhibition [2]: 6.1%
- % of inhibition ([3]; at 0.01 µM): -5.3%
- % of inhibition ([3]; at 0.04 µM): 19.1%
- % of inhibition ([3]; at 0.2 µM): -26.4%
- % of inhibition ([3]; at 1 µM): 10.2%
- % of inhibition ([3]; at 5 µM): 0.7%
- % of inhibition [4]: 1.5%
- % of inhibition ([5]; at 0.01 µM): -0.6%
- % of inhibition ([5]; at 0.04 µM): 7%
- % of inhibition ([5]; at 0.2 µM): 14.4%
- % of inhibition ([5]; at 1 µM): 4.9%
- % of inhibition ([5]; at 5 µM): -6.3%
Compound: CC[C@@H]1[C@H](F)C(=O)N[C@@H]1COc1nccc2cc(C(N)=O)c(OC)cc12 [ZIMLOVISERTIB]

Compound: COc1cc(N(C)c2ccnc3ccc(C(F)(F)F)cc23)cc(OC)c1OC
- % binding [6]: 89%

Compound: COc1cc(Nc2nc(C)cc(-c3cnn4nc(OC)ccc34)n2)cc(C(F)(F)F)c1
- % of control [7]: 89%

Compound: O=C(NOC[C@H](O)CO)c1ccc(F)c(F)c1Nc1ccc(I)cc1F
- % of control [8]: 88%

- % of inhibition [9]: 0.732%
Compound: Cn1cc(-n2cnc3c(NCc4nc5cc(Cl)c(Cl)cc5[nH]4)nc(N4CCOCC4)nc32)cn1
